From PubChem BioAssay (NCI) come the findings set out here.

Among the test systems are SNB-78 CNS; DLD-1 colon; HOP-18 NSCLC; KM20L2 colon; LXFL 529 NSCLC; MDA-MB-435; DU-145 prostate; PC-3 prostate; MCF7 breast; BT-549 breast.
Assay in all cases: NCI anticancer screen, dose series, 48 h

“And” between values parts separate entries of the source, which are not always exact repeats. Identical values can stand only once.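 Method: 48-hour compound exposure of cells in 96-well plates, five concentrations, linear interpolation of endpoints. GI50 is the concentration that inhibits growth by half. TGI denotes the concentration required for complete inhibition of growth.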 Some results are limits rather than exact numbers.

Turning to `Cc1ccc(C2=C(c3ccccc3)C(Br)(c3ccccc3)C(c3ccccc3)=C2c2ccc(C)cc2)cc1`, the TGI with SNB-78 CNS, in the test with DLD-1 colon, with HOP-18 NSCLC, in the test on KM20L2 colon and in the test with LXFL 529 NSCLC was > 100 µM throughout.

Take `CC12CC3CC(C1)CC(N=[N+]=[N-])(C3)C2`: the TGI with SNB-78 CNS, in the test on DLD-1 colon, in the test on HOP-18 NSCLC, in the test on KM20L2 colon and in the test with LXFL 529 NSCLC was > 100 µM throughout.

On to `Cc1cccc2c1C(=O)OC2(C)c1cccc2ccccc12` (centres undefined), for which the TGI is > 100 µM in the test on SNB-78 CNS, > 100 µM in the test on DLD-1 colon, > 100 µM in the test with HOP-18 NSCLC and 59.5 µM with KM20L2 colon.

For the compound `CC(C)(c1ccc(OC#N)cc1)c1ccc(OC#N)cc1`, the TGI with SNB-78 CNS, with DLD-1 colon, in the test with HOP-18 NSCLC, in the test on KM20L2 colon and in the test with LXFL 529 NSCLC was > 100 µM each time.

Turning to `O=C(/C=C1/NC(=O)CS1)Nc1ccccc1`, the TGI with SNB-78 CNS, in the test on DLD-1 colon, in the test with HOP-18 NSCLC, in the test with KM20L2 colon and in the test with LXFL 529 NSCLC was > 100 µM in each case.

As for `COc1cc2cccc(NC(=O)c3cc(OC)c(OC)c(OC)c3Br)c2cc1OC`, the TGI in the test with SNB-78 CNS is 49 µM; in the test on DLD-1 colon, > 100 µM; with HOP-18 NSCLC it was 74.4 µM; in the test with KM20L2 colon, > 100 µM; in the test with LXFL 529 NSCLC, 10.9 µM.

`O=C1C[C@@H]2CCCC[C@@H]2C12SCCS2`: the TGI in the test on SNB-78 CNS, in the test on DLD-1 colon and with LXFL 529 NSCLC was > 100 µM in each case.

As for `COc1ccccc1/C=N/N=C(\N)NO`, the TGI in the test on SNB-78 CNS, with DLD-1 colon, in the test with HOP-18 NSCLC and with LXFL 529 NSCLC was > 100 µM in each case.

For `c1ccc(SC(CCCCOC2CCCCO2)Sc2ccccc2)cc1` (centres undefined), the TGI with SNB-78 CNS, in the test with DLD-1 colon and in the test on LXFL 529 NSCLC was > 100 µM each time.

Consider `COc1ccc2c(c1)CC1c3c(cc4c(c3-2)OCO4)CCN1C` (centres undefined), for which the TGI in the test on SNB-78 CNS was > 100 µM; with DLD-1 colon it was > 100 µM; with HOP-18 NSCLC, 82.7 µM; in the test on KM20L2 colon it was > 100 µM; in the test with LXFL 529 NSCLC, > 100 µM.

Consider `O=C1CCCC1NC(=O)C(F)(F)F` (centres undefined), for which the TGI with SNB-78 CNS, in the test with DLD-1 colon and in the test on LXFL 529 NSCLC was > 100 µM each time.

For `N#CC(C#N)=C1SCC(=O)CS1`, the TGI in the test with SNB-78 CNS, in the test on DLD-1 colon, in the test on KM20L2 colon and in the test on LXFL 529 NSCLC was > 100 µM throughout.

For the compound `Cn1c(=O)c(C(=O)NC(=O)OCc2ccccc2)cn(CCSCCOC(=O)NCCCCCCNC(=O)OCCSCCn2cc(C(=O)NC(=O)OCc3ccccc3)c(=O)n(C)c2=O)c1=O`, the TGI with SNB-78 CNS, in the test with DLD-1 colon, in the test on KM20L2 colon and in the test with LXFL 529 NSCLC was > 100 µM in each case.

Consider `Clc1ccc(SCCCCCCCCCCSc2ccc(Cl)cc2)cc1`, for which the TGI with SNB-78 CNS is > 100 µM; in the test with DLD-1 colon, > 100 µM; in the test on HOP-18 NSCLC, > 100 µM; in the test on KM20L2 colon, > 87 µM; with LXFL 529 NSCLC it was > 100 µM.

As to `Cc1cc(=O)oc2cc(OCc3nc4ccccc4c(=O)[nH]3)ccc12`, the TGI with DLD-1 colon, in the test with HOP-18 NSCLC, in the test on KM20L2 colon and with LXFL 529 NSCLC was > 100 µM in each case.

With `COc1cc(/C=C2/C(=O)NC(Cc3cc(OC)c(OC)c(C)c3OC)C(=O)N2Cc2ccccc2)c(OC)c(C)c1OC` (centres undefined), the TGI in the test on DLD-1 colon is > 100 µM; in the test on HOP-18 NSCLC, 80.4 µM; in the test on KM20L2 colon, > 100 µM; in the test on LXFL 529 NSCLC, > 100 µM.

Turning to `CNc1nc(N(C)C)nc(N(C)C)n1`, the GI50 in the test with SNB-78 CNS is > 100 µM and 1780 µM; in the test with DLD-1 colon it was > 100 µM and 822 µM; with HOP-18 NSCLC, > 100 µM and 1130 µM; in the test with KM20L2 colon, > 100 µM and 718 µM. Moreover, the TGI in the test with SNB-78 CNS is > 100 µM and 5300 µM; with DLD-1 colon, > 100 µM and 4160 µM; in the test with MDA-MB-435, 4420 µM; in the test on DU-145 prostate, 5040 µM; with HOP-18 NSCLC it was > 100 µM and 3780 µM; with PC-3 prostate, 3960 µM. Also, the TGI is > 100 µM and 3210 µM in the test on KM20L2 colon; 1790 µM with MCF7 breast; > 100 µM in the test with LXFL 529 NSCLC; 3620 µM with BT-549 breast.

With `C/C(=N\O)C(CN1CCCCC1)C(c1ccccc1)c1c(O)c2ccccc2oc1=O` (centres undefined), the TGI in the test with DLD-1 colon, in the test with KM20L2 colon and in the test on LXFL 529 NSCLC was > 100 µM each time.

With `O=P1(O)c2ccccc2Nc2cc(C(F)(F)F)ccc21`, the TGI in the test with SNB-78 CNS, in the test on DLD-1 colon, in the test with MDA-MB-435, with DU-145 prostate, in the test on HOP-18 NSCLC and in the test with PC-3 prostate was > 100 µM each time. For the same compound, the TGI with KM20L2 colon, with MCF7 breast, in the test on LXFL 529 NSCLC and with BT-549 breast was > 100 µM throughout.

On to `CCOc1ccccc1NC(=O)C1=C(C)NC(C)=C(C(=O)Nc2ccccc2OCC)C1c1ccc(NC(C)=O)cc1`, for which the TGI is > 100 µM in the test on SNB-78 CNS, > 100 µM in the test on DLD-1 colon, 98.9 µM in the test with KM20L2 colon and > 100 µM with LXFL 529 NSCLC.
